According to patent US11802110B2, “2-amino-N-(arylsulfinyl)-acetamide compounds as inhibitors of bacterial aminoacyl-tRNA synthetase” (priority 2016, dated 2023):
≈ marks a conversion by molar mass, not a printed value. Read-outs that look alike come from different tables or passages of the source.

Tests used:
[1] = tested on: Pseudomonas aeruginosa ATCC 27853; assay: Study 4 - MIC by broth micro-dilution (CLSI); assay type: cell-based; settings: Pseudomonas aeruginosa, ATCC27853
Description: (§1) Minimum Inhibitory Concentrations (MICs) were determined by the broth micro-dilution method performed according to Clinical Laboratory Standards Institute guidelines. For testing, 5 mg/mL DMSO solutions were prepared by dissolving solids in DMSO. Standard antibiotics were prepared according to CLSI guidelines as 5 mg/mL stock solutions. Upon DMSO stock solutions preparation, the working solutions in MH media were prepared by adding 38.4 μL of stock solution to 1461.6 μL of MH media. Out of these working solutions 100 μL were transferred to wells in the third column of 96-well assay plates. Assay plates were previously filled with 50 μL of MH media in all wells except for the wells in the third column. Upon compounds and antibiotics addition, 50 μL was transferred from the third to the fourth column, then from the fourth to the fifth and so on.
(§2) MIC value was determined by visual inspection of bacterial growth within 96-well plates. The first column in which there was no visible growth of bacteria was determined as MIC value for compound or antibiotic tested in that particular row. ATCC strains were used as reference strains for which there is a determined value of MIC values for standard antibiotics. The assay is considered valid when MIC values for standard antibiotics are within CLSI designated range for ATCC strain tested.

[2] = tested on: Enterobacter cloacae B1966 clinical isolate; assay: Study 4 - MIC by broth micro-dilution (CLSI); assay type: cell-based; settings: Enterobacter cloacae
Description: as §1, §2

[3] = tested on: Haemophilus influenzae ATCC 49247; assay: Study 4 - MIC by broth micro-dilution (CLSI); assay type: cell-based; settings: Haemophilus influenzae, ATCC49247
Description: as §1, §2

[4] = tested on: Escherichia coli ATCC 25922; assay: Study 4 - MIC by broth micro-dilution (CLSI); assay type: cell-based; settings: Escherichia coli, ATCC25922
Description: as §1, §2

[5] = tested on: Klebsiella pneumoniae ATCC 700603; assay: Study 4 - MIC by broth micro-dilution (CLSI); assay type: cell-based; settings: Klebsiella pneumoniae, ATCC700603
Description: as §1, §2

[6] = tested on: Acinetobacter baumannii B1931 clinical isolate; assay: Study 4 - MIC by broth micro-dilution (CLSI); assay type: cell-based; settings: Acinetobacter baumannii
Description: as §1, §2

[7] = Human cell viability (cytotoxicity), ATP levels by CellTiter-Glo; assay type: cell-based; settings: HepG2 cells (ATCC HB-8065), 24 hours incubation, read-out: IC50 (μg/mL), Cytotoxicity in HepG2 ATCC HB-8065 Cell Line
Description: Compounds were assessed for potential non-specific cytotoxic effects against a human hepatic cell line (HepG2 ATCC HB-8065). 96-well plates were seeded with HepG2 cells in concentration of 15,000 cells per well in 100 μL of MEM growth media completed with 1% NEAA and 1% sodium pyruvate. Border wells were filled with 100 μL of sterile PBS. Two days upon cells incubation, the compounds were added. Compound dilutions were prepared in 96-well V-bottom plate in pure DMSO. Growth media from 5 plates were aspirated and replaced with 98.7 μL of fresh growth media. 1.28 μL of compounds prepared in V-bottom plates were transferred with multichannel pipette into test plates (78.1× dilution). Final DMSO concentration was 1.28% per well. In control wells, 1.28 μL of DMSO was added in 98.7 μL of media. Compounds were tested in duplicates. Cells were incubated with compounds for 24 hours when cell viability was assessed by measuring ATP levels. ATP levels were measured by adding 50 μL of CellTiter-Glo reagent to each well and after 5 minutes of incubation luminescence was measured with SpectraMax i3. The potential effect of tested compounds on cell viability was determined by comparing the signal obtained in presence of different concentrations of the compounds with those obtained in the presence of DMSO only. The potential effects were then calculated and presented as IC50 values (μg/mL).

[8] = target: E. Coli LeuRS (Escherichia coli (strain K12), UniProt P07813); assay: Study 2 - Isothermal titration calorimetry (ITC); assay type: binding; settings: 25° C., pH 7.5, mean ± SD
E. Coli LeuRS, sequence (P07813 whole entry): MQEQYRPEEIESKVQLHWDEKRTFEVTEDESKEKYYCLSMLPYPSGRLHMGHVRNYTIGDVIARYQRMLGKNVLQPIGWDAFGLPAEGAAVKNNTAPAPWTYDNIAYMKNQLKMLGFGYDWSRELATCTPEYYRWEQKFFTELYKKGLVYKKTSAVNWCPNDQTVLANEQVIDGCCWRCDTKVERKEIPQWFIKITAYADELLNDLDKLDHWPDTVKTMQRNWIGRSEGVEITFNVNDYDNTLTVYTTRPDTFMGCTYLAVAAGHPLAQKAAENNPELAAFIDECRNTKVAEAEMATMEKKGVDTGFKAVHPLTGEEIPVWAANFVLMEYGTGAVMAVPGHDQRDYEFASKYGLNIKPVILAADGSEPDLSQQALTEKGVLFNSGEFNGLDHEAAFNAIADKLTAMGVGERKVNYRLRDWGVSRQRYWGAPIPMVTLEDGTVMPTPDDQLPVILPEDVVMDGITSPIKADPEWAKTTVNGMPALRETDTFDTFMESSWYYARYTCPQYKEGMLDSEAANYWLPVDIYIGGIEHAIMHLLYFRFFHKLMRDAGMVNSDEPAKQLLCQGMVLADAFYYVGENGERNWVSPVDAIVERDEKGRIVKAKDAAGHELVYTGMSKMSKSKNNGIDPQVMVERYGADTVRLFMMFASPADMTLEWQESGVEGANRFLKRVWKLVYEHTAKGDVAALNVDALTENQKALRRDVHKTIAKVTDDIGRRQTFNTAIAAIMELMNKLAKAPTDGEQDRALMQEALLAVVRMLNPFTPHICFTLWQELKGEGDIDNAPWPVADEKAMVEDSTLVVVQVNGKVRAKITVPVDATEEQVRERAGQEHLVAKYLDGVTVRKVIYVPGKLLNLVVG
Description: Escherichia coli BL21(DE3) cells transformed with plasmid pQE-60 containing the open-reading frame sequence of one targeted aaRS (i.e., LeuRS) were induced with 1 mM IPTG (isopropyl β-D-1-thiogalactopyranoside) for 3 hours at 37° C. Bacterial cells were harvested and lysed with 20 mM HEPES (4-(2-hydroxyethyl)-1-piperazinylethane-sulfonic acid) (pH 7.5), 300 mM NaCl, 15 mM imidazole and 1 mM DTT (1,4-dithio-D-threitol). The pathogenic aaRS was first purified by nickel affinity standard chromatography. The eluted protein was concentrated and then further purified by gel filtration using 50 mM HEPES (pH 7.5), 150 mM NaCl buffer.
ITC studies were carried out using a Microcal ITC200 instrument (GE Healthcare). Protein concentration was determined by spectrophotometry by measuring the absorbance at 280 nm using a theoretical molar extinction coefficient of 169,140 M^−1cm^−1. Ligand stock solutions were prepared in DMSO at 62.5 mM concentration. The titrations were performed at 25° C. with 7.5-100 μM E. Coli LeuRS in 50 mM HEPES, 150 mM NaCl, pH 7.5 buffer containing 1% DMSO (v/v). The protein solution in the 280 μL sample cell was titrated with the inhibitor solution (diluted to 75-3000 μM in the same buffer as the protein) using 1-2 μL injections every 120-140 seconds. All titrations were repeated at least two times. To correct for heats of dilution and mixing, the final baseline consisting of small peaks of identical size at the end of each experiment was subtracted. The experimental data were fitted to a theoretical titration curve (one site model) using MicroCal Origin 7 SR4 software.
Note that Compounds R-4.1 and S-4.1 (in Table 15, below) correspond to Compounds V-i and V-ii (in Tables 13 and 14, above), respectively.

[9] = tested on: Escherichia coli ATCC 25922 TolC deficient mutant (E. coli EFFLUX del); assay: microbe, parasite or virus in culture; assay type: cell-based; settings: Escherichia coli, ATCC25922
Description: as §1, §2

[10] = G = H. influenzae ATCC 49247, read-out: MIC

In the case of `C=Cc1cccc([S+]([O-])NC(=O)C(N)CC(C)C)c1` (stereo not shown) [4.16], the MIC [1] is reported as > 64 µg/mL, the MIC [2] is reported as 32 µg/mL (≈ 114 µM) and the MIC [3, 10] is reported as 32 µg/mL (≈ 114 µM). For the same compound, the MIC [4] was 8 µg/mL (≈ 28.5 µM), the MIC [5] was > 64 µg/mL and the MIC [6] was 32 µg/mL (≈ 114 µM). For the same compound, the IC50 at 24 h [7] was > 64 µg/mL, the Kd [8] was 27.2 ± 8.44 nM and the ΔG [8] was -10.34 ± 0.19 kcal/mol. For the same compound, the ΔH [8] was -4.89 ± 0.08 kcal/mol and the MIC [9] was 8 µg/mL (≈ 28.5 µM).
With `CNc1cccc([S+]([O-])NC(=O)C(N)CC(C)C)c1` (stereo not shown) [4.22] the MIC [1] was > 64 µg/mL, the MIC [2] was 32 µg/mL (≈ 113 µM) and the MIC [3, 10] was > 64 µg/mL. For the same compound, the MIC [4] was 16 µg/mL (≈ 56.5 µM), the MIC [5] was 64 µg/mL (≈ 226 µM) and the MIC [6] was 32 µg/mL (≈ 113 µM). The IC50 at 24 h [7] was > 64 µg/mL, the Kd [8] was 34.5 ± 0.76 nM and the ΔG [8] was -10.17 ± 0.02 kcal/mol. It also gave a ΔH [8] of -4.27 ± 0.19 kcal/mol and an MIC [9] of 16 µg/mL (≈ 56.5 µM).
For `CC(C)CC(N)C(=O)N[S+]([O-])c1ccc(F)cc1` (stereo not shown) [4.29], the MIC [1] was > 64 µg/mL, the MIC [2] was 16 µg/mL (≈ 58.7 µM) and the MIC [3, 10] was 32 µg/mL (≈ 117 µM). For the same compound, the MIC [4] was 8 µg/mL (≈ 29.4 µM), the MIC [5] was 64 µg/mL (≈ 235 µM) and the MIC [6] was 16 µg/mL (≈ 58.7 µM). For the same compound, the IC50 at 24 h [7] was > 64 µg/mL, the Kd [8] was 9.14 ± 0.3 nM and the ΔG [8] was -10.96 ± 0.01 kcal/mol. For the same compound, the ΔH [8] was -10.95 ± 0.18 kcal/mol and the MIC [9] was 16 µg/mL (≈ 58.7 µM).
For `CC(C)C[C@H](N)C(=O)N[S@+]([O-])c1ccccc1` (single isomer, unassigned) [R-4.1, 2,2,2-trifluoroacetate], the MIC [1] was 32 µg/mL (≈ 126 µM), the MIC [2] was 4 µg/mL (≈ 15.7 µM) and the MIC [3] was 16 µg/mL (≈ 62.9 µM). For the same compound, the MIC [4] was 2 µg/mL (≈ 7.86 µM), the MIC [5] was 8 µg/mL (≈ 31.5 µM) and the MIC [6] was 8 µg/mL (≈ 31.5 µM). The IC50 at 24 h [7] was > 64 µg/mL, the Kd [8] was 3.86 ± 0.24 nM and the ΔG [8] was -11.48 ± 0.04 kcal/mol. The ΔH [8] was -11.92 ± 0.34 kcal/mol and the MIC [9] was 2 µg/mL (≈ 7.86 µM).
In the case of `COC(=O)c1cccc([S+]([O-])NC(=O)C(N)CC(C)C)c1` (stereo not shown) [4.21], the MIC [1] is reported as > 64 µg/mL, the MIC [2] is reported as > 64 µg/mL and the MIC [3, 10] is reported as > 64 µg/mL. For the same compound, the MIC [4] was 32 µg/mL (≈ 102 µM), the MIC [5] was > 64 µg/mL and the MIC [6] was > 64 µg/mL. For the same compound, the IC50 at 24 h [7] was > 64 µg/mL, the Kd [8] was 6.61 ± 0.83 nM and the ΔG [8] was -11.16 ± 0.07 kcal/mol. It also gave a ΔH [8] of -8.23 ± 0.43 kcal/mol and an MIC [9] of 32 µg/mL (≈ 102 µM).
In the case of `CC(C)CC(N)C(=O)N[S+]([O-])c1cccc(-c2ccccc2)c1` (stereo not shown) [4.17], the MIC [1] is reported as > 64 µg/mL, the MIC [2] is reported as > 64 µg/mL and the MIC [3, 10] is reported as > 64 µg/mL. For the same compound, the MIC [4] was > 64 µg/mL, the MIC [5] was > 64 µg/mL and the MIC [6] was > 64 µg/mL. It also gave an IC50 at 24 h [7] of 47.7 µg/mL (≈ 144 µM), a Kd [8] of 4.47 ± 0.04 nM and a ΔG [8] of -11.39 ± 0.01 kcal/mol. The ΔH [8] was -9.72 ± 0.22 kcal/mol and the MIC [9] was 64 µg/mL (≈ 194 µM).
For `CC(C)CC(N)C(=O)N[S+]([O-])c1cccc(C(F)(F)F)c1` (stereo not shown) [4.18], the MIC [1] was > 64 µg/mL, the MIC [2] was > 64 µg/mL and the MIC [3, 10] was > 64 µg/mL. The MIC [4] was 64 µg/mL (≈ 199 µM), the MIC [5] was > 64 µg/mL and the MIC [6] was > 64 µg/mL. The IC50 at 24 h [7] was > 64 µg/mL, the Kd [8] was 6.06 ± 0.49 nM and the ΔG [8] was -11.20 ± 0.06 kcal/mol. The ΔH [8] was -7.03 ± 0.14 kcal/mol and the MIC [9] was 16 µg/mL (≈ 49.6 µM).
With `CC(C)CC(N)C(=O)N[S+]([O-])c1ccccc1F` (stereo not shown) [4.31] the MIC [1] was 32 µg/mL (≈ 117 µM), the MIC [2] was 4 µg/mL (≈ 14.7 µM) and the MIC [3, 10] was 8 µg/mL (≈ 29.4 µM). It also gave an MIC [4] of 2 µg/mL (≈ 7.34 µM), an MIC [5] of 2 µg/mL (≈ 7.34 µM) and an MIC [6] of 4 µg/mL (≈ 14.7 µM). The IC50 at 24 h [7] was > 64 µg/mL, the Kd [8] was 6.78 ± 1.73 nM and the ΔG [8] was -11.15 ± 0.16 kcal/mol. It also gave a ΔH [8] of -12.97 ± 2.04 kcal/mol and an MIC [9] of 2 µg/mL (≈ 7.34 µM).
